Counter-ions that a name gives are not always drawn.
Tests used:
[1] = biological target: T1, Prostate-specific membrane antigen (PSMA) (Homo sapiens, UniProt Q04609); experiment: radioenzymatic assay with 3H-NAAG, purified recombinant PSMA; type: biochemical
T1 construct: gene FOLH1; extracellular part of human PSMA; amino acids 44–750

[2] = biological target: T1, Prostate-specific membrane antigen (PSMA); experiment: X-ray crystal structure ([…] Å); IC50 from radioenzymatic 3H-NAAG assay with purified enzyme; type: biochemical

T1 sequence (Q04609 44-750): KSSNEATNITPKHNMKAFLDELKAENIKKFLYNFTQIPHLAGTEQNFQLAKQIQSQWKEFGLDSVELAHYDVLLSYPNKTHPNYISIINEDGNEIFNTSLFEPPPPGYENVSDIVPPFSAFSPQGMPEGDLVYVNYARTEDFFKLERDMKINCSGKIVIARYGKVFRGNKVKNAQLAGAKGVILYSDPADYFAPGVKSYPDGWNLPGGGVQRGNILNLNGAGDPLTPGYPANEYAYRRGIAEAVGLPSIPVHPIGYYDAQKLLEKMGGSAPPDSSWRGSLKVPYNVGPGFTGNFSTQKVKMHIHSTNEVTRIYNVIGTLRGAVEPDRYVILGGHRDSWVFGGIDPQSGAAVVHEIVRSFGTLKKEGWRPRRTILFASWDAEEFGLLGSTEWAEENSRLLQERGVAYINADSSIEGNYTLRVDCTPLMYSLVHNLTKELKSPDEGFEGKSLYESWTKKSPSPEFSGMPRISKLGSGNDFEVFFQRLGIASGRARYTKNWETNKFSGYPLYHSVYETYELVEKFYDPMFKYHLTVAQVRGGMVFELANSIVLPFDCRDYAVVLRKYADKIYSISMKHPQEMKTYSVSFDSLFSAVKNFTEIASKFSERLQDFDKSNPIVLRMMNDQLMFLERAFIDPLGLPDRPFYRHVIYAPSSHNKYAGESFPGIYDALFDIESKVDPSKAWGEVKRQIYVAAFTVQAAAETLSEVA

| IC50 [1] [µM] | IC50 [2] [µM] | SMILES |
| --- | --- | --- |
| 103 | – | O=C(O)CC[C@H](NS(=O)(=O)N[C@@H](CC(=O)O)C(=O)O)C(=O)O [compound 3, (S)-2-((N-((S)-1,2-Dicarboxyethyl)sulfamoyl)amino)pentanedioic Acid Tetrasodium Salt] |
| 165 | – | O=C(O)CC[C@H](NS(=O)(=O)N[C@@H](CCC(=O)O)C(=O)O)C(=O)O [compound 4, (2S,2′S)-2,2′-(Sulfonylbis(azanediyl))dipentanedioic Acid] |
| – | 1.2 | NS(=O)(=O)N[C@@H](CCC(=O)O)C(=O)O [compound 9, monosubstituted glutamyl sulfamide 9] |

— PMC10865363, “Structural, Biochemical, and Computational Characterization of Sulfamides as Bimetallic Peptidase Inhibitors” (Journal of Chemical Information and Modeling, 2024)
